Data published in patent publication US20100028407A1, “LAYERED BIO-ADHESIVE COMPOSITIONS AND USES THEREOF” (UNIVERSITY OF LOUISVILLE RESEARCH FOUNDATION, INC., priority 2006, published 2010).

Columns and labels:
[1] = Closure of 3 mm corneal wounds by impregnated gelatin sheets, Seidel test under rising intraocular pressure; parameters: species or system porcine; conditions: about 100-μm gelatin sheet (50% gelatin, 300 mM sucrose) impregnated with rose bengal 1.5 mM (light pipe 3 min), glyceraldehyde 0.2 M (no illumination) or riboflavin 0.1% (UV 370 nm); average±standard deviation
Description: Gelatin blocks were prepared by the following method: Gelatin (300 Blooms, Sigma, St. Louis, Mo.) was dissolved in Minimal Essential Medium (MEM, Gibco, Grand Island, N.Y.), 300 mM sucrose was added and the solution was sterilized with gamma irradiation (2.7 Megarads). Addition of 300 mM sucrose maintained the gelatin sheets in a solid phase at temperatures below 37° C. and allowed the gelatin sheet to melt within minutes at body temperature once the gelatin sheet were placed over the wound. Gelatin blocks were prepared at a concentration of about 50% (weight/volume of MEM), which were firm enough to manipulate during the surgery by the surgeon. These gelatin blocks have rigidity of 300 blooms. Once the gelatin/sucrose solution in MEM was sterilized, the solution was poured into 35-mm tissue culture dish (Falcon #3001, Becton Dickinson, Lincoln Park, N.J.) and allowed to cool for 15 minutes to solidify at room temperature. […]
Rose bengal was activated with an endoilluminator light pipe for 3 minutes. […] After each elevation, the treated wound was checked for the presence of any possible wound leak with the Seidel test, and the highest intraocular pressure at which the wound remained intact was recorded. This experiment was repeated three times on three different occasions and the results were calculated as average±standard deviation. […]

[2] = tested on: photo receptor cells (PRC), choriocapillaris (CC) and RPE cells; test: Live-Dead cell viability immediately after photo-melding conditions; type: cell-based; conditions: control PBS
Description: Cellular viability of photo receptor cells (PRC), choriocapillaris (CC) and RPE cells were determined with the Live-Dead assay (Molecular Probes, Portland, Oreg.) to determine the safety of the photo-melding procedure. Human cadaver eyes were obtained from an eye bank. Anterior segments were removed and sensory retina and RPE-CC complex were dissected out. Tissue samples of 6-mm size were cut from each layer and placed in 1.5 mM and 10 mM rose bengal solution. Using similar parameters photo-melding conditions were mimicked. Viability was assessed immediately after exposure. Samples exposed to similar lighting conditions in PBS were taken as control.

PRC, CC and RPE cells = test: Live-Dead cell viability after photo-melding of Bruch's membrane patch graft in eyecup followed by ambient light; type: cell-based, human; conditions: 1.5 mM rose bengal; 6 hours ambient light at room temperature
Description: In order to assess the additive effect of subsequent ambient light on cell toxicity anterior segments of three eyecups were removed and a 20-D PMMA PC IOL was sutured into the ciliary sulcus. Sensory retina was carefully lifted off and foveal RPE cells were removed mechanically. Exposed Bruch's membrane was intentionally damaged and a 6-mm Bruch's membrane patch graft photo-melded by photo-exciting 1.5 mM of rose bengal through sensory retina. After the photo-melding procedure, the eyecup was maintained at room temperature for 6 hours exposed to ambient light. At the end of this period cellular viability was assessed with Live-Dead assay. Again, PBS treated eyes served as control.

[3] = TEM and SEM ultrastructure of photo-melded Bruch's membrane explants; conditions: 0.1 to 20 mM tested
Description: Bruch's membrane explants were photo-melded with varying concentrations of rose bengal, ranging from 0.1 to 20 mM. Transmission electron microscopy (TEM) and scanning electron microscopy (SEM). […] At this concentration, cross linked collagen fibers twisted onto themselves and formed macro bundles. At concentrations higher that 1.5 mM, attenuation of individual collagen fibers and frequent breaks lead to the disruption of collagen framework resulting in hollow spaces at 10 and 20 mM concentrations. Starting from 0.1 mM concentration, the number of electron-dense collagen fibers increased as the concentration of rose bengal increased, possibly due to increased oxidation and subsequent better attraction of positively charged lead and osmium on the collagen fiber. At concentrations higher than 10 mM electron dense haze started to accumulate around the collagen debris.

[4] = Attachment strength of photo-melded inner collagenous layer explants in a buoyancy chamber; parameters: species or system human; conditions: for Attachment strength: 35 mW light at 40 mm
Description: Bruch's membrane explants were harvested from cadaver eyes. RPE-Bruch's membrane-Choroid complexes were dissected out under a microscope; washed with PBS three times and kept in 0.02N ammonium hydroxide for 30 minutes to lyse all cellular components. Three cycles of PBS washing followed by removal of the basal lamina mechanically as described before. Briefly, a full thickness circumferential incision was made posterior to the ora serrata and the anterior segment and vitreous were removed carefully. The posterior pole of each eye cup was inspected visually with direct and retroillumination under a dissecting microscope and globes were discarded if there was any evidence of subretinal blood, previous surgery or any extensive structural or vascular alteration of the posterior segment due to a disease process, such as proliferative diabetic retinopathy or proliferative vitreoretinopathy. The eyecups were put in carbon dioxide-free Media (Gibco) and a scleral incision was made 3 mm from the limbus and extended circumferentially. Four radial incisions were then made and the sclera was peeled away. […] The choroid-Bruch's membrane-RPE complex was then carefully peeled towards the optic disc and removed after trimming its attachment to the optic nerve. Native RPE were removed by bathing the explant with 0.02 N ammonium hydroxide in a 50-mm polystyrene Petri dish (Falcon, Becton Dickinson, Lincoln Park, N.J.) for 20 minutes at room temperature followed by washing three times in phosphate-buffered saline (PBS). The Bruch's membrane explant from the fellow eye was prepared by removing the RPE with 0.02N ammonium hydroxide as described above. The Bruch's membrane explant was then floated in CFM over a 12-18 micron thick hydrophilic polycarbonate-polyvinylpyrrolidone membrane with 0.4 micron pores (Millipore, Bedford, Mass.) with the basal lamina facing towards the membrane. The curled edges were flattened from the choroidal side with fine forceps without touching Bruch's membrane. Four percent agarose (Sigma Chemical Co., St. Louis, Mo.) was poured on the Bruch's membrane-choroid complex from the choroidal side and the tissue was kept at 4° C. for 2-3 minutes to solidify the agarose. The hydrophilic membrane was peeled off along with the basal lamina of the RPE thus exposing the bare inner collagenous layer. 6 mm circular buttons were then trephined from peripheral Bruch's membrane on a Teflon sheet and placed on 4% agarose at 37° C. in non-treated polystyrene wells of a 96 well plate (Corning Costar Corp., Cambridge, Mass.). The agarose solidified within 2-3 minutes at room temperature, thus stabilizing the Bruch's membrane explant. The wells were gently rinsed with PBS three times for 5 minutes, gamma sterilized (20,000 rads) and then stored at 4° C. Explants with exposed ICL were then cut with a 6-mm trephine and stored in sterile PBS after gamma sterilization at 20,000 rads. At the time of use ICL surface was painted with rose bengal (at concentrations as provided in FIG. 2) and two patches were faced to each other at their ICL surface. Extra fluid was removed with a Whatman #30 filter paper and the two surfaces were apposed. […] Exposure time was limited to three minutes not to exceed photo-toxicity thresholds. […] Exposed inner collagenous layers were painted with rose bengal and photo-[…] to each other by photo-exciting rose bengal with a white light source. The light intensity matched the vitrectomy endo illuminator and exposure was limited to 3 minutes to avoid retinal photo-toxicity. […] Attached grafts were kept under 0.21 mN (milliNewtons) of constant traction for 3 days to test the stability of the […] process.

With `O=CC(O)CO` (stereo not shown) [glyceraldehyde] the “Highest intraocular pressure at which the wound remained intact” value [1] was 66.1±6.0 mmHg.

For `O=C([O-])c1c(Cl)c(Cl)c(Cl)c(Cl)c1-c1c2cc(I)c(=O)c(I)c-2oc2c(I)c([O-])c(I)cc12.[Na+].[Na+]` [rose bengal, tetratodotetrachioro fluorescein disodium salt], the “PRC, CC and RPE cell viability immediately after photo-melding procedure” value ([2]; 1.5 mM rose bengal) was “no adverse side effect”, the “PRC, CC and RPE cell viability immediately after photo-melding procedure” value ([2]; 10 mM rose bengal) was “no adverse side effect” and the “PRC, CC and RPE cell viability after photo-melding and ambient light exposure” value (PRC, CC and RPE cells) was “did not effect the viability”. The “Concentration at which collagen crosslinking reached its maximum” value [3] was 1.5 mM, the Attachment strength ([4]; 1.5 mM rose bengal, 3 min) was 14.1 N/m^2 and the Attachment strength ([4]; 5 mM rose bengal, 3 min) was 14.1 N/m^2. For the same compound, the Attachment strength ([4]; 10 mM rose bengal, 3 min) was 5.7 N/m^2, the Attachment strength ([4]; 20 mM rose bengal, 3 min) was 2.83 N/m^2 and the “Minimum concentration to attain strong photo-melding of human inner collagenous layer grafts” value ([4]; 3 min, 35 mW light) was 1.5 mM. For the same compound, the “Concentration resulting in photo-melding of exposed human inner collagenous layers” value ([4]; 3 min exposure to 35 mW of light at 40 millimeters) was “above 0.1 mM”, the “Stability of photo-melded grafts under continuous traction” value ([4]; 72 hours of observation at 37° C., 0.21 mN constant traction) was “remained attached” and the “Highest intraocular pressure at which the wound remained intact” value [1] was 75.6±5.8 mmHg.
